One experiment relates to HCT-116. Description: Cytotoxicity against human HCT-116 cells assessed as reduction in cell viability measured after 72 hrs by MTS assay. The format is functional, cell-based. The conditions noted are these: HCT-116, 72 h.
The next experiment deals with NHDF. Description: Cytotoxicity against NHDF cells assessed as reduction in cell viability measured after 72 hrs by MTS assay. The format is cell-based. The conditions noted are these: Homo sapiens. (In general: Tetrazolium assays rely on reduction of a dye to a coloured formazan, in cell work by metabolically active cells.)
Experiment [1] deals with PANC-1. Description: Cell cycle arrest in human PANC-1 cells assessed as increase in accumulation at G0/G1-phase measured after 24 hrs by muse cell analyser. Format: functional, cell-based.
For experiment [2], the system named is PANC-1. Briefly: Cell cycle arrest in human PANC-1 cells assessed as accumulation at G0/G1-phase at 5 uM measured after 24 hrs by muse cell analyser (reference value: 48.28 to 48.7%). Format: functional.
Experiment [3] relates to PANC-1. Briefly: Cell cycle arrest in human PANC-1 cells assessed as accumulation at S-phase at 5 uM measured after 24 hrs by muse cell analyser (reference value: 14.3 to 14.9%). Format: functional.
For experiment [4], the system named is MCF7. Description: Cell cycle arrest in human MCF7 cells assessed as accumulation at G2/M-phase at 7.5 uM measured after 24 hrs by muse cell analyser (reference value: 30.92 to 33.6%). Format: functional.
Experiment [5] deals with PANC-1. Briefly: Induction of apoptosis in human PANC-1 cells assessed as late apoptotic cells at 5 uM measured after 48 hrs by Annexin V and dead cell kit analysis (reference value: 2.4%). Format: functional.
The subject of experiment [6] is PANC-1. Description: Induction of apoptosis in human PANC-1 cells assessed as necrotic cells at 7.5 uM measured after 48 hrs by Annexin V and dead cell kit analysis (reference value: 1.05%). The format is functional.
Experiment [7] has as its system MCF7. Description: Induction of apoptosis in human MCF7 cells assessed as necrotic cells at 5 uM measured after 48 hrs by Annexin V and dead cell kit analysis (reference value: 0.5%). Format: functional.
The test system of experiment [8] is MCF7. Briefly: Induction of apoptosis in human MCF7 cells assessed as early apoptotic cells at 7.5 uM measured after 48 hrs by Annexin V and dead cell kit analysis (reference value: 0.65%). The format is functional.
The subject of experiment [9] is MCF7. Briefly: Induction of apoptosis in human MCF7 cells assessed as late apoptotic cells at 7.5 uM measured after 48 hrs by Annexin V and dead cell kit analysis (reference value: 1.45%). The format is functional.
Experiment [10] concerns MCF7. Description: Induction of apoptosis in human MCF7 cells assessed as necrotic cells at 7.5 uM measured after 48 hrs by Annexin V and dead cell kit analysis (reference value: 0.5%). Format: functional.
The subject of experiment [11] is MCF7. Description: Induction of reactive oxygen species generation in human MCF7 cells at 1 uM measured after 24 hrs by cellrox-green reagent based assay relative to control. Format: functional.
The test system of experiment [12] is PANC-1. Description: Up regulation of p21 expression in human PANC-1 cells at 0.5 uM measured after 24 hrs by Western blot analysis. The format is functional, cell-based. (In general: A western blot detects proteins with antibodies after separation by electrophoresis.)
Experiment [13] relates to PANC-1. Briefly: Down regulation of cyclin E1 expression in human PANC-1 cells at 0.5 to 5 uM measured after 24 hrs by Western blot analysis. The format is functional, cell-based. The note with it: dose 0.5-5 µM.
The test system of experiment [14] is MCF7. Description: Up regulation of p53 expression in human MCF7 cells at 1 to 5 uM measured after 24 hrs by Western blot analysis. Format: functional, cell-based. The conditions noted are these: dose 1-5 µM.
Experiment [15] deals with PANC-1. Briefly: Induction of apoptosis in human PANC-1 cells assessed as increase in PARP cleavage at 0.5 to 5 uM measured after 24 hrs by Western blot analysis. The format is functional, cell-based. The conditions noted are these: dose 0.5-5 µM.
Experiment [16] relates to PANC-1. Briefly: Induction of autophagy in human PANC-1 cells assessed as increase in LC3 expression at 1 uM measured after 24 hrs by muse cell analyzer based fluorescence assay relative to control. Format: functional.

Calls of active or inactive are those of the source. The rule behind the calls is not given here.

The term IC50 denotes the concentration needed to halve the response being measured. For the compound `c1ccc(-c2cn(-c3ccc(-c4cc(-c5ccccn5)nc(-c5ccccn5)c4)cc3)nn2)nc1`, the IC50 is 243 nM with HCT-116 and greater than 25000 nM with NHDF. The Activity result in the experiment with PANC-1 [1] was “Dose-dependent effect”; with PANC-1 [2], 55.1%; in the experiment with PANC-1 [3], 7.3%; with MCF7 [4], 22%; with PANC-1 [5], 8.75%; in the experiment on PANC-1 [6], 1.8%. In addition, the Activity in the experiment with MCF7 [7] is recorded as 10.9%; with MCF7 [8], 28.2%; in the experiment with MCF7 [9], 17.45%; in the experiment on MCF7 [10], 4.15%; in the experiment with MCF7 [11], greater than 150%. The result with PANC-1 [12] and in the experiment on PANC-1 [15] was Active. The outcome in the experiment on PANC-1 [13] and in the experiment with MCF7 [14] was inactive. The “fold change (FC)” value with PANC-1 [16] is 2.2.
